Laboratory results published in patent US20180237441A1, “Chemical Compounds” (GlaxoSmithKline Intellectual Property (No.2) Limited, priority 2015, published 2018).

These compounds were tested against T1, PERK (Homo sapiens, UniProt Q9NZJ5) (assay: PERK enzyme assay (HTRF)). Conditions: 500 μM ATP; at least one experimental run; read-out: PERK Enzyme (500 μM ATP) IC50.
T1 sequence (Q9NZJ5 30-1116): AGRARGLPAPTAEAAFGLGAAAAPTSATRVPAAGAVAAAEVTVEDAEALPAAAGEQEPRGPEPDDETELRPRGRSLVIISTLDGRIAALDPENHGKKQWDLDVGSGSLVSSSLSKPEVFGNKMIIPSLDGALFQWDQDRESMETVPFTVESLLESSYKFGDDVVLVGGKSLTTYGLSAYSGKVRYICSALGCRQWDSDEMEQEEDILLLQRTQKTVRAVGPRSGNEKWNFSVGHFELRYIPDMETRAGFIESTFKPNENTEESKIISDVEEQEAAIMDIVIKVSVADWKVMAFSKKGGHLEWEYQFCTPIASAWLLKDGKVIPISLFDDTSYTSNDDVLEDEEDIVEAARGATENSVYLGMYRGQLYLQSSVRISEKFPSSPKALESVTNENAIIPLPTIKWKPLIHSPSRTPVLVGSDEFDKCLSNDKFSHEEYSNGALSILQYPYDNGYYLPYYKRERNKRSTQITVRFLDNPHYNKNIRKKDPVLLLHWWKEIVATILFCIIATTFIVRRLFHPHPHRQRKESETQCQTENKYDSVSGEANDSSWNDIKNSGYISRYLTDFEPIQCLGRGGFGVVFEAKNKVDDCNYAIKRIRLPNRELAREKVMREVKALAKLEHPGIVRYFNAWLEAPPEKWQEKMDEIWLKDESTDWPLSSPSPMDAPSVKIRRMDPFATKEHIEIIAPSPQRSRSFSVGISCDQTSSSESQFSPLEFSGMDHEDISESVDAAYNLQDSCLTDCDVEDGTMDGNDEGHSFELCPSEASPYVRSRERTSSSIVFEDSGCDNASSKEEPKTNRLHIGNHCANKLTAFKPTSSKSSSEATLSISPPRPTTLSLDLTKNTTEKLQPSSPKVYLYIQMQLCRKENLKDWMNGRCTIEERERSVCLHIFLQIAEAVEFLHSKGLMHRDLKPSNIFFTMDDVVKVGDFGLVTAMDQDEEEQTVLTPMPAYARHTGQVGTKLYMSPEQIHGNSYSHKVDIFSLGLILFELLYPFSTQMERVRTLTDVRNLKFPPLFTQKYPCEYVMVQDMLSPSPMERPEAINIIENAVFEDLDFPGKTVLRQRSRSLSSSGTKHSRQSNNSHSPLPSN
Format: biochemical
Procedure: Compounds of the invention were assayed for PERK enzyme inhibitory activity with modifications to previously reported conditions (Axten et al. J. Med. Chem., 2012, 55, 7193-7207). Briefly, various concentrations of compounds (maximum 1% DMSO) were dispensed into 384-well plates containing GST-PERK enzyme. After 30-60 minutes of compound pre-incubation, ATP and biotin-eIF2α were added and after 60 minutes the reaction was quenched. After 2 hrs, a fluorescence plate reader was used to measure inhibition and IC50s were calculated.
Enzyme Assay Protocol for PKR-Like Endoplasmic Reticulum Kinase (PERK)—HTRF —% Inhibition
Assay Buffer contains HEPES (pH7.5) 10 mM, CHAPS 2 mM, MgCl2 5 mM and DTT 1 mM in water
Detection Buffer contains HEPES (pH7.5) 10 mM and CHAPS 2 mM in water Assay Plate Preparation:
1. Enzyme Preparation: • 4× Enzyme solution was prepared immediately prior to adding to compound plates. • 3 nM of GST-PERK in Assay buffer. Final [PERK] in 10 μl assay volume=0.75 nM
2. Substrate Preparation: • 4× Substrate solution was prepared immediately prior to adding to compound plates. • 4× Substrate solution in assay buffer 2000 μM ATP and 160 nM Biotin-eIF2α • Final [ATP] in 10 μl assay volume=500 μM • Final [biotin-eIF2a] in 10 μl assay volume=40 nM.
3. Quench/Detection Solution: • 16 nM eIF2 Phospho-Antibody • 16 nM Eu anti-Rabbit IgG • 160 nM Streptavidin-APC • 60 mM EDTA • Final concentration in 10 μL assay volume: 4 nM eIF2 Phospho-Antibody, 4 nM Eu anti-Rabbit IgG 40 nM Streptavidin-APC
The activity of compounds in the PERK enzyme assay was determined at PERK Enzyme (500 μM ATP) IC50 (nM).
An IC50 of 3640 nM was found for `Cn1cc(-c2ccc(N3CC(c4cc(F)ccc4F)N(Cc4ccccc4)C3=O)cc2F)c2c(N)ncnc21` (centres unmarked) [Example 20, 1-(4-(4-amino-7-methyl-7H-pyrrolo[2,3-d]pyrimidin-5-yl)-3-fluorophenyl)-3-benzyl-4-(2,5-difluorophenyl)imidazolidin-2-one] in this work. An IC50 of 4 nM was found for `CN1C(=O)N(c2ccc(-c3cn(C4CC4)c4ncnc(N)c34)c(F)c2)CC1c1ccccc1` (single isomer, unassigned) [Example 165, 1-(4-(4-amino-7-cyclopropyl-7H-pyrrolo[2,3-d]pyrimidin-5-yl)-3-fluorophenyl)-3-methyl-4-phenylimidazolidin-2-one] in this work.

Same assay, conditions: PERK Enzyme (500 μM ATP) IC50; at least one experimental run; read-out: PERK Activity
An IC50 of 100 to 1000 nM was found for `CN1C(=O)N(c2ccc(-c3cn(C)c4ncnc(N)c34)c(F)c2)CC1c1cccc(F)c1F` (centres unmarked) [Example 74, 1-(4-(4-amino-7-methyl-7H-pyrrolo[2,3-d]pyrimidin-5-yl)-3-fluorophenyl)-4-(2,3-difluorophenyl)-3-methylimidazolidin-2-one] in this work. For `CCN1C(=O)N(c2ccc(-c3cn(C)c4nc(C)nc(N)c34)c(F)c2)CC1c1cc(F)ccc1F` (single isomer, unassigned) [Example 44, 1-(4-(4-amino-2,7-dimethyl-7H-pyrrolo[2,3-d]pyrimidin-5-yl)-3-fluorophenyl)-4-(2,5-difluorophenyl)-3-ethylimidazolidin-2-one], the IC50 was < 100 nM. With `Cn1cc(-c2ccc(N3CC(c4cc(F)ccc4F)N(Cc4ccccc4)C3=O)cc2F)c2c(N)ncnc21` (centres unmarked) [Example 20, 1-(4-(4-amino-7-methyl-7H-pyrrolo[2,3-d]pyrimidin-5-yl)-3-fluorophenyl)-3-benzyl-4-(2,5-difluorophenyl)imidazolidin-2-one] the IC50 was > 1000 nM. `Cc1nc(N)c2c(-c3ccc(N4CC(c5ccc(F)cc5F)N(C)C4=O)cc3F)cn(C3CC3)c2n1` (single isomer, unassigned) [Example 8, 1-(4-(4-amino-7-cyclopropyl-2-methyl-7H-pyrrolo[2,3-d]pyrimidin-5-yl)-3-fluorophenyl)-4-(2,4-difluorophenyl)-3-methylimidazolidin-2-one] was tested, and the IC50 was < 100 nM. For `CN1C(=O)N(c2ccc(-c3cn(C4CC4)c4ncnc(N)c34)c(F)c2)CC1c1cc(F)c(F)cc1F` (centres unmarked) [Example 157, 1-(4-(4-amino-7-cyclopropyl-7H-pyrrolo[2,3-d]pyrimidin-5-yl)-3-fluorophenyl)-3-methyl-4-(2,4,5-trifluorophenyl)imidazolidin-2-one], the IC50 was < 100 nM. `CCN1C(=O)N(c2ccc(-c3cn(C)c4ncnc(N)c34)c(F)c2)CC1c1ccc(F)cc1` (centres unmarked) [Example 57] was tested, and the IC50 was < 100 nM. An IC50 of 100 to 1000 nM was found for `Cc1nc(N)c2c(-c3ccc(N4CC(c5ccc(Cl)nc5)N(C)C4=O)cc3F)cn(C)c2n1` (single isomer, unassigned) [Example 136, 1-(4-(4-amino-2,7-dimethyl-7H-pyrrolo[2,3-d]pyrimidin-5-yl)-3-fluorophenyl)-4-(6-chloropyridin-3-yl)-3-methylimidazolidin-2-one] in this work. In the case of `CN1C(=O)N(c2ccc(-c3cn(C4CC4)c4ncnc(N)c34)c(F)c2)CC1c1ccc(F)cc1` (single isomer, unassigned) [Example 163, 1-(4-(4-amino-7-cyclopropyl-7H-pyrrolo[2,3-d]pyrimidin-5-yl)-3-fluorophenyl)-4-(4-fluorophenyl)-3-methylimidazolidin-2-one], the IC50 is reported as < 100 nM. An IC50 of 100 to 1000 nM was found for `CCN1C(=O)N(c2ccc(-c3cn(C)c4ncnc(N)c34)c(F)c2)CC1c1cccc(Cl)c1F` (centres unmarked) [Example 22, 1-(4-(4-amino-7-methyl-7H-pyrrolo[2,3-d]pyrimidin-5-yl)-3-fluorophenyl)-4-(3-chloro-2-fluorophenyl)-3-ethylimidazolidin-2-one] in this work. In the case of `CN1C(=O)N(c2ccc(-c3cn(C)c4ncnc(N)c34)c(F)c2)CC1C1CCCCC1` (single isomer, unassigned) [Example 62, 1-(4-(4-amino-7-methyl-7H-pyrrolo[2,3-d]pyrimidin-5-yl)-3-fluorophenyl)-4-cyclohexyl-3-methylimidazolidin-2-one], the IC50 is reported as < 100 nM. For `CN1C(=O)N(c2ccc(-c3cn(C4CC4)c4ncnc(N)c34)c(F)c2)CC1c1ccccc1` (single isomer, unassigned) [Example 165, 1-(4-(4-amino-7-cyclopropyl-7H-pyrrolo[2,3-d]pyrimidin-5-yl)-3-fluorophenyl)-3-methyl-4-phenylimidazolidin-2-one], the IC50 was < 100 nM. With `CN1C(=O)N(c2ccc(-c3cn(C4CC4)c4ncnc(N)c34)c(F)c2)CC1c1cc(F)cc(F)c1` (centres unmarked) [Example 176, 1-(4-(4-amino-7-cyclopropyl-7H-pvrrolo[2,3-d]pyrimidin-5-yl)-3-fluorophenyl)-4-(3,5-difluorophenyl)-3-methylimidazolidin-2-one] the IC50 was < 100 nM. `CN1C(=O)N(c2ccc(-c3cn(C4CC4)c4ncnc(N)c34)c(Cl)c2)CC1c1cc(F)cc(F)c1` (single isomer, unassigned) [Example 129, 1-(4-(4-amino-7-cyclopropyl-7H-pyrrolo[2,3-d]pyrimidin-5-yl)-3-chlorophenyl)-4-(3,5-difluorophenyl)-3-methylimidazolidin-2-one] was tested, and the IC50 was < 100 nM. For `CN1C(=O)N(c2ccc(-c3cn(C)c4ncnc(N)c34)c(F)c2)CC1c1ccc2c(c1)CCO2` (single isomer, unassigned) [Example 169, 1-(4-(4-amino-7-methyl-7H-pyrrolo[2,3-d]pyrimidin-5-yl)-3-fluorophenyl)-4-(2,3-dihydrobenzofuran-5-yl)-3-methylimidazolidin-2-one], the IC50 was < 100 nM. An IC50 of 100 to 1000 nM was found for `Cn1cc(-c2ccc(N3CC(c4cc(F)ccc4F)NC3=O)cc2F)c2c(N)ncnc21` (centres unmarked) [Example 21, 1-(4-(4-amino-7-methyl-7H-pyrrolo[2,3-d]pyrimidin-5-yl)-3-fluorophenyl)-4-(2,5-difluorophenyl)imidazolidin-2-one] in this work. An IC50 of 100 to 1000 nM was found for `Cn1cc(-c2ccc(N3CC(c4cc(F)cc(F)c4)CC3=O)cc2F)c2c(N)ncnc21` (centres unmarked) [Example 4, 1-(4-(4-Amino-7-methyl-7H-pyrrolo[2,3-d]pyrimidin-5-yl)-3-fluorophenyl)-4-(3,5-difluorophenyl)pyrrolidin-2-one] in this work. For `Cc1nc(N)c2c(-c3ccc(N4CC(c5ccc(F)cc5F)N(C)C4=O)cc3F)nn(C)c2n1` (single isomer, unassigned) [Example 13, 1-(4-(4-amino-1,6-dimethyl-1H-pyrazolo[3,4-d]pyrimidin-3-yl)-3-fluorophenyl)-4-(2,4-difluorophenyl)-3-methylimidazolidin-2-one], the IC50 was > 1000 nM. In the case of `CN1C(=O)N(c2ccc(-c3cn(C4CC4)c4ncnc(N)c34)c(F)c2)CC1c1cc(F)ccc1F` (single isomer, unassigned) [Example 146, 1-(4-(4-amino-7-cyclopropyl-7H-pyrrolo[2,3-d]pyrimidin-5-yl)-3-fluorophenyl)-4-(2,5-difluorophenyl)-3-methylimidazolidin-2-one], the IC50 is reported as < 100 nM. With `CCN1C(=O)N(c2ccc(-c3cn(C4CC4)c4ncnc(N)c34)c(F)c2)CC1c1cc(F)cc(F)c1` (single isomer, unassigned) [Example 173, 1-(4-(4-amino-7-cyclopropyl-7H-pyrrolo[2,3-d]pyrimidin-5-yl)-3-fluorophenyl)-4-(3,5-difluorophenyl)-3-ethylimidazolidin-2-one] the IC50 was < 100 nM. An IC50 of 100 to 1000 nM was found for `CCN1C(=O)N(c2ccc(-c3cn(C)c4ncnc(N)c34)c(F)c2)CC1c1cccc(F)c1F` (centres unmarked) [Example 75, 1-(4-(4-amino-7-methyl-7H-pyrrolo[2,3-d]pyrimidin-5-yl)-3-fluorophenyl)-4-(2,3-difluorophenyl)-3-ethylimidazolidin-2-one] in this work. An IC50 of 100 to 1000 nM was found for `CCN1C(=O)N(c2ccc(-c3cn(C)c4nc(C)nc(N)c34)c(F)c2)CC1c1ccc(F)cc1F` (single isomer, unassigned) [Example 67, 1-(4-(4-amino-2,7-dimethyl-7H-pyrrolo[2,3-d]pyrimidin-5-yl)-3-fluorophenyl)-4-(2,4-difluorophenyl)-3-ethylimidazolidin-2-one] in this work.
